Measurements: US7807673B2, “2-pyrimidinyl pyrazolopyridine ErbB kinase inhibitors” (GlaxoSmithKline LLC, priority 2005, dated 2010)

How the values were obtained:
ErbB2 or EGFR = biological target: T1, ErbB2 or EGFR; test: ErbB enzyme substrate phosphorylation assay (HTRF), Method B (enzyme pre-incubated with compound 1 hour); assay type: biochemical; settings: Table 1, enzyme Method B: enzyme mix incubated with compound 1 hour at 20° C., reaction started with substrate mix; class over ErbB2 or EGFR
T1 construct: enzymes purified from a baculovirus expression system
Procedure, shortened: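 Baculovirus-expressed kinase (0.8 nM EGFR or 10 nM ErbB2 in enzyme mix) phosphorylated biotinylated Peptide C (0.8 µM in substrate mix) with 20 µM ATP in substrate mix, MOPS pH 7.5, MnCl2, 90 min at 20 °C. Method A started with enzyme; Method B pre-incubated enzyme with compound 1 h at 20 °C. HTRF read-out; IC50 from 12-point curve (0.00027–47.6 µM), reported as pIC50.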

[1] = test system: BT474 and HN5 tumor cell lines; test: Methylene blue growth inhibition assay (cellular Method A); assay type: cell-based; settings: Homo sapiens, BT-474 and HN5, 72 h; Table 2, Method A methylene blue, 3 days; class over BT474 and HN5;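 note: class counts the more potent of the two cell lines (BT474 or HN5)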
Description: (§1) Human breast (BT474) and head and neck (HN5) were cultured in low glucose DMEM (Life Technologies 12320-032) containing 10% fetal bovine serum (FBS). Human colon tumor cells (Colo205) were cultured in DMEM (Invitrogen, 10564) containing 10% FBS. The SV40 transformed human mammary epithelial cell line to HB4a was transfected with either human H-ras cDNA (HB4a r4.2) or the human c-ErbB2 cDNA (HB4a c5.2). The HB4a clones were cultured in RPMI containing 10% FBS, insulin ([…]), hydrocortisone ([…]), supplemented with the selection agent hygromycin B ([…]). All lines were grown in a humidified incubator at 37° C. in 95% air, 5% CO2. Cells were harvested using trypsin/EDTA, counted using a haemocytometer, and plated in 100 microliters of the appropriate media, at the following densities, in a 96-well tissue culture plate (Falcon 3075): BT474 10,000 cells/well, HN5 3,000 cells/well. The next day, compounds were diluted in DMEM containing […] gentamicin, at twice the final required concentration, from 10 mM stock solutions in DMSO. 100 microliters/well of these dilutions were added to the 100 microliters of media currently on the cell plates. Medium containing 0.6% DMSO was added to control wells. Compounds diluted in DMEM were added to all cell lines. The final concentration of DMSO in all wells was 0.3%. Cells were returned to the incubator (37° C., […]) for 3 days. Medium was then removed by aspiration. Cell biomass was estimated by staining cells with 90 microliters per well methylene blue (Sigma M9140, 0.5% in 1:1 ethanol:water), and incubation at rt for at least 30 minutes. Stain was removed, and the plates rinsed by immersion in deionized water and air-dried. To release stain from the cells 100 microliters of solubilization solution was added (1% N-lauroyl sarcosine, Sodium salt, Sigma L5125, in PBS), and plates were shaken gently for about 30 minutes. Optical density at 620 nm was measured on a microplate reader. Percent inhibition of cell growth was calculated relative to vehicle treated control wells. Concentration of compound that inhibits 50% of control cell growth (IC50) was interpolated using nonlinear regression (Levenberg-Marquardt) and the equation, y=Vmax*(1−(x/(K+x)))+Y2, where “K” was equal to the IC50. Method B: Celltiter Glo® Growth Inhibition Assays

Colo205 tumor cell lines = test: as above; assay type: cell-based; settings: Homo sapiens, COLO 205, 72 h, Table 3, Method A methylene blue, 3 days
Description: as §1

| IC50 [1] [µM] | IC50 (Colo205 tumor cell lines) [µM] | Structure (SMILES) | Activity (Method) (ErbB2 or EGFR) |
| --- | --- | --- | --- |
| 0.1 to 1 | 0.1 to 1 | CN(C)Cc1cccc(Nc2nccc(-c3c(-c4cccc(NC(=O)Cc5ccsc5)c4)nn4ccccc34)n2)c1 [Example 24, N-(3-{3-[2-({3-[(Dimethylamino)methyl]phenyl}-amino)-4-pyrimidinyl]pyrazolo[1,5-a]pyridin-2-yl}phenyl)-2-(3-thienyl)acetamide] | +++ (B) (at least one pIC50 measurement of greater than 7 against either ErbB2 or EGFR) |
| > 1 | 0.1 to 1 | CN(C)Cc1cccc(Nc2nccc(-c3c(-c4cccc(NC(=O)Cc5c(F)cccc5F)c4)nn4ccccc34)n2)c1 [Example 25, 2-(2,6-Difluorophenyl)-N-(3-{3-[2-({3-[(dimethylamino)methyl]-phenyl}amino)-4-pyrimidinyl]pyrazolo[1,5-a]pyridin-2-yl}phenyl)acetamide] | ++ (B) (at least one pIC50 measurement greater than 6 against either ErbB2 or EGFR but no measurement greater than pIC50 of 7) |
| > 1 | > 1 | CN(C)Cc1cccc(Nc2nccc(-c3c(-c4cccc(NC(=O)Cc5cccnc5)c4)nn4ccccc34)n2)c1 [Example 26, N-(3-{3-[2-({3-[(Dimethylamino)methyl]phenyl}amino)-4-pyrimidinyl]pyrazolo[1,5-a]pyridin-2-yl}phenyl)-2-(3-pyridinyl)acetamide] | ++ (B) (at least one pIC50 measurement greater than 6 against either ErbB2 or EGFR but no measurement greater than pIC50 of 7) |
| > 1 | > 1 | CN(C)Cc1cccc(Nc2nccc(-c3c(-c4cccc(NC(=O)Cc5ccccn5)c4)nn4ccccc34)n2)c1 [Example 27, N-(3-{3-[2-({3-[(Dimethylamino)methyl]phenyl}amino)-4-pyrimidinyl]pyrazolo[1,5-a]pyridin-2-yl}phenyl)-2-(2-pyridinyl)acetamide] | ++ (B) (at least one pIC50 measurement greater than 6 against either ErbB2 or EGFR but no measurement greater than pIC50 of 7) |
| > 1 | > 1 | Cc1cc(CC(=O)Nc2cccc(-c3nn4ccccc4c3-c3ccnc(Nc4cccc(CN(C)C)c4)n3)c2)on1 [Example 28, N-(3-{3-[2-({3-[(Dimethylamino)methyl]-phenyl}amino)-4-pyrimidinyl]pyrazolo[1,5-a]pyridin-2-yl}phenyl)-2-(3-methyl-5-isoxazolyl)acetamide] | +++ (B) (at least one pIC50 measurement of greater than 7 against either ErbB2 or EGFR) |
| > 1 | > 1 | Cc1sc(-c2ccccc2)nc1CC(=O)Nc1cccc(-c2nn3ccccc3c2-c2ccnc(Nc3cccc(CN(C)C)c3)n2)c1 [Example 29, N-(3-{3-[2-({3-[(Dimethylamino)methyl]phenyl}amino)-4-pyrimidinyl]pyrazolo[1,5-a]pyridin-2-yl}phenyl)-2-(5-methyl-2-phenyl-1,3-thiazol-4-yl)acetamide] | + (B) (no pIC50 measurement greater than 6 against either ErbB2 or EGFR) |
| 0.1 to 1 | 0.1 to 1 | CN(C)CCOc1cccc(Nc2nccc(-c3c(-c4cccc(NC(=O)Cc5ccsc5)c4)nn4ccccc34)n2)c1 [Example 39, N-[3-(3-{2-[(3-{[2-(dimethylamino)ethyl]oxy}phenyl)amino]-4-pyrimidinyl}pyrazolo[1,5-a]pyridin-2-yl)phenyl]-2-(3-thienyl)acetamide] | +++ (B) (at least one pIC50 measurement of greater than 7 against either ErbB2 or EGFR) |
| 0.1 to 1 | > 1 | NCc1cccc(Nc2nccc(-c3c(-c4cccc(NC(=O)Cc5ccsc5)c4)nn4ccccc34)n2)c1 [Example 43, N-{3-[3-(2-{[3-(Aminomethyl)phenyl]amino}-4-pyrimidinyl)pyrazolo[1,5-a]pyridin-2-yl]phenyl}-2-(3-thienyl)acetamide] | +++ (B) (at least one pIC50 measurement of greater than 7 against either ErbB2 or EGFR) |
| > 1 | > 1 | O=C(Cc1cccs1)Nc1cccc(-c2nn3ccccc3c2-c2ccnc(Nc3ccc(Cl)c(OCCN4CCCC4)c3)n2)c1 [Example 44, N-[3-(3-{2-[(4-chloro-3-{[2-(1-pyrrolidinyl)ethyl]oxy}phenyl)amino]-4-pyrimidinyl}pyrazolo[1,5-a]pyridin-2-yl)phenyl]-2-(2-thienyl)acetamide] | +++ (B) (at least one pIC50 measurement of greater than 7 against either ErbB2 or EGFR) |
| > 1 | > 1 | CN(C)CCOc1cc(Nc2nccc(-c3c(-c4cccc(NC(=O)Cc5cccs5)c4)nn4ccccc34)n2)ccc1Cl [Example 45] | ++ (B) (at least one pIC50 measurement greater than 6 against either ErbB2 or EGFR but no measurement greater than pIC50 of 7) |
| 0.1 to 1 | 0.1 to 1 | CN(C)C1Cc2ccc(Nc3nccc(-c4c(-c5cccc(NC(=O)Cc6cccs6)c5)nn5ccccc45)n3)cc2C1 (stereo not drawn) [Example 53, N-{3-[3-(2-{[2-(Dimethylamino)-2,3-dihydro-1H-inden-5-yl]amino}pyrimidin-4-yl)pyrazolo[1,5-a]pyridin-2-yl]phenyl}-2-(2-thienyl)acetamide] | +++ (B) (at least one pIC50 measurement of greater than 7 against either ErbB2 or EGFR) |
| < 0.1 | 0.1 to 1 | NC1Cc2ccc(Nc3nccc(-c4c(-c5cccc(NC(=O)Cc6cccs6)c5)nn5ccccc45)n3)cc2C1 (stereo not drawn) [Example 54, N-[3-(3-{2-[(2-Amino-2,3-dihydro-1H-inden-5-yl)amino]-4-pyrimidinyl}pyrazolo[1,5-a]pyridin-2-yl)phenyl]-2-(2-thienyl)acetamide] | +++ (B) (at least one pIC50 measurement of greater than 7 against either ErbB2 or EGFR) |
| 0.1 to 1 | 0.1 to 1 | NC1CCc2ccc(Nc3nccc(-c4c(-c5cccc(NC(=O)Cc6cccs6)c5)nn5ccccc45)n3)cc2C1 (stereo not drawn) [Example 55, N-[3-(3-{2-[(7-Amino-5,6,7,8-tetrahydro-2-naphthalenyl)amino]-4-pyrimidinyl}pyrazolo[1,5-a]pyridin-2-yl)phenyl]-2-(2-thienyl)acetamide] | +++ (B) (at least one pIC50 measurement of greater than 7 against either ErbB2 or EGFR) |
